# Measured values taken from US20230391752A1, “PYRROLIDINE-3-CARBOXAMIDE DERIVATIVES AND RELATED USES” (Chulalongkorn University, priority 2020, published 2023).
# Tested on: HBV
# Assay: In vitro anti-HBV activity in HepG2.2.15 cell line (intracellular HBV DNA by qPCR at 1 μM)
# Type: cell-based
# Settings: Hepatitis B virus, 144 h; HepG2.2.15 cells, 1 μM compound, 6 days, intracellular HBV DNA as percentage compared to vehicle control (0.5% DMSO)
# Protocol: The stable transfected HBV cell line, called HepG2.2.15 cells was a valuable model with high reproducibility and commonly used for drug screening. To identify the anti-HBV activity, HepG2.2.15 cells were seeded at 5×10^5 cells/well with high glucose Dulbecco's modified Eagle medium (DMEM) containing 10% heat inactivated fetal bovine serum (FBS), 300 mg/L G418, non-essential amino acids (NEAA) 100 units/ml Antibiotic-Antimycotic, and allowed to stand for an overnight in an incubator set at 37° C. and 5% C02. HepG2.2.15 cells in each well were treated with the medium containing a compound (1 μM with 0.5% dimethyl sulfoxide (DMSO final concentration) for three days in the incubator. After that the medium was removed and fresh medium containing the compound was added to the cells for another 3 days. After 6 days of treatment, intracellular HBV DNA was extracted and determined by using quantitative real-time PCR (qPCR) technique with specific primers. Intrahepatic HBV DNA viral load was reported as percentage compared to vehicle control (0.5% DMSO) as shown in Table A.
# “B” means % ranging between 80 and 90; “C” means % ranging between 70 and 80; “D” means % ranging between 60 and 70; “E” means % ranging between 45 and 60, “F” means %<45.
row,Compound,activity at 1 µM
1,"CC(O)c1c[nH]c(C(=O)N2CC[C@H](C(=O)Nc3cc(F)c(F)c(F)c3)C2)c1 (stereo partly drawn) [Example 39, (3S)-1-(4-(1-hydroxyethyl)-1H-pyrrole-2-carbonyl)-N-(3,4,5-trifluorophenyl)pyrrolidine-3-carboxamide]",70 to 80%
2,"N#Cc1c[nH]c(C(=O)N2CC[C@H](C(=O)Nc3ccc(F)c(Cl)c3)C2)c1 [Example 40, (S)—N-(3-chloro-4-fluorophenyl)-1-(4-cyano-1H-pyrrole-2-carbonyl)pyrrolidine-3-carboxamide]",> 90%
3,"N#Cc1cc(NC(=O)[C@H]2CCN(C(=O)c3[nH]c4ccccc4c3Cl)C2)ccc1F [Example 43, (S)-1-(3-chloro-1H-indole-2-carbonyl)-N-(3-cyano-4-fluorophenyl)pyrrolidine-3-carboxamide]",45 to 60%
4,"Cc1ccc(C(=O)N2CC[C@H](C(=O)Nc3cc(F)c(F)c(F)c3)C2)s1 [Example 44, (S)-1-(5-methylthiophene-2-carbonyl)-N-(3,4,5-trifluorophenyl)pyrrolidine-3-carboxamide]",70 to 80%
5,"O=C(Nc1cc(F)c(F)c(F)c1)[C@H]1CCN(C(=O)c2cc3cnccc3[nH]2)C1 [Example 46, (S)-1-(1H-pyrrolo[3,2-c]pyridine-2-carbonyl)-N-(3,4,5-trifluorophenyl)pyrrolidine-3-carboxamide]",60 to 70%
6,"O=C(Nc1cc(F)c(F)c(F)c1)[C@H]1CCN(C(=O)c2cc3ccncc3[nH]2)C1 [Example 47, (S)-1-(1H-pyrrolo[2,3-c]pyridine-2-carbonyl)-N-(3,4,5-trifluorophenyl)pyrrolidine-3-carboxamide]",80 to 90%
7,"O=C(Nc1cc(F)c(F)c(F)c1)[C@H]1CCN(C(=O)c2ccc[nH]2)C1 [Example 48, (S)-1-(1H-pyrrole-2-carbonyl)-N-(3,4,5-trifluorophenyl)pyrrolidine-3-carboxamide]",80 to 90%
8,"O=C(Nc1cc(F)c(F)c(F)c1)[C@H]1CCN(C(=O)c2cc3cc(F)c(F)cc3[nH]2)C1 [Example 49, (S)-1-(5,6-difluoro-1H-indole-2-carbonyl)-N-(3,4,5-trifluorophenyl)pyrrolidine-3-carboxamide]",> 90%
9,"N#Cc1ccc(C(=O)N2CC[C@H](C(=O)Nc3cc(F)c(F)c(F)c3)C2)[nH]1 [Example 50, (S)-1-(5-cyano-1H-pyrrole-2-carbonyl)-N-(3,4,5-trifluorophenyl)pyrrolidine-3-carboxamide]",70 to 80%
10,"Cc1ccc(C(=O)N2CC[C@H](C(=O)Nc3cc(F)c(F)c(Br)c3)C2)[nH]1 [Example 51, (S)—N-(3-bromo-4,5-difluorophenyl)-1-(5-methyl-1H-pyrrole-2-carbonyl)pyrrolidine-3-carboxamide]",45 to 60%
11,"O=C(Nc1cc(F)c(F)c(Br)c1)[C@H]1CCN(C(=O)c2cc3cnccc3[nH]2)C1 [Example 53, (S)—N-(3-bromo-4,5-difluorophenyl)-1-(1H-pyrrolo[3,2-c]pyridine-2-carbonyl)pyrrolidine-3-carboxamide]",70 to 80%
12,"O=C(Nc1cc(F)c(F)c(F)c1)[C@H]1CCN(C(=O)c2cc3cccnc3[nH]2)C1 [Example 54, (S)-1-(1H-pyrrolo[2,3-b]pyridine-2-carbonyl)-N-(3,4,5-trifluorophenyl)pyrrolidine-3-carboxamide]",70 to 80%
13,"Cc1ccc2[nH]c(C(=O)N3CC[C@H](C(=O)Nc4cc(F)c(F)c(F)c4)C3)cc2c1 [Example 55, (S)-1-(5-methyl-1H-indole-2-carbonyl)-N-(3,4,5-trifluorphenyl)pyrrolidine-3-carboxamide]",> 90%
14,"O=C(Nc1cc(F)c(F)c(F)c1)[C@H]1CCN(C(=O)c2ccc(CO)[nH]2)C1 [Example 56, (S)-1-(5-(hydroxymethyl)-1H-pyrrole-2-carbonyl)-N-(3,4,5-trifluorophenyl)pyrrolidine-3-carboxamide]",> 90%
15,"O=C(Nc1cc(F)c(F)c(F)c1)[C@H]1CCN(C(=O)c2cc3cc(F)ccc3[nH]2)C1 [Example 57, (S)-1-(5-fluoro-1H-indole-2-carbonyl)-N-(3,4,5-trifluorophenyl)pyrrolidine-3-carboxamide]",> 90%
16,"Cc1ccc(C(=O)N2CC[C@H](C(=O)Nc3cc(F)c(F)c(Br)c3)[C@@H]2C)[nH]1 [Example 58, (2S,3S)—N-(3-bromo-4,5-difluorophenyl)-2-methyl-1-(5-methyl-1H-pyrrole-2-carbonyl)pyrroline-3-carboxamide]",70 to 80%
17,"O=C(Nc1cc(F)c(F)c(F)c1)[C@H]1CCN(C(=O)c2[nH]c3ncccc3c2Cl)C1 [Example 59, (S)-1-(3-chloro-1H-pyrrolo[2,3-b]pyridine-2-carbonyl)-N-(3,4,5-trifluorophenyl)pyrrolidine-3-carboxamide]",45 to 60%

row,Compound,activity at 1 µM
1,"CC(C)c1ccc(C(=O)N2CC[C@H](C(=O)Nc3cc(F)c(F)c(F)c3)C2)[nH]1 [Example 61, (S)-1-(5-isopropyl-1H-pyrrole-2-carbonyl)-N-(3,4,5-trifluorophenyl)pyrrolidine-3-carboxamide]",60 to 70%
2,"Cc1ccc(C(=O)N2CC[C@H](C(=O)Nc3cc(F)c(F)c(Cl)c3)C2)[nH]1 [Example 62, (S)—N-(3-chloro-4,5-difluorophenyl)-1-(5-methyl-1H-pyrrole-2-carbonyl)pyrrolidine-3-carboxamide]",45 to 60%
3,"N#Cc1c(C(=O)N2CC[C@H](C(=O)Nc3cc(F)c(F)c(F)c3)C2)[nH]c2ncccc12 [Example 63, (S)-1-(3-cyano-1H-pyrrolo[2,3-b]pyridine-2-carbonyl)-N-(3,4,5-trifluorophenyl)pyrrolidine-3-carboxamide]",70 to 80%
4,"C[C@H]1[C@@H](C(=O)Nc2cc(F)c(F)c(F)c2)CCN1C(=O)c1cc2ncccc2[nH]1 [Example 64, (2S,3S)-2-methyl-1-(1H-pyrrolo[3,2-b]pyridine-2-carbonyl)-N-(3,4,5-trifluorophenyl) pyrrolidine-3-carboxamide]",70 to 80%
5,"Cc1ccc(C(=O)N2CC[C@H](C(=O)Nc3ccc(F)c(C#N)c3)[C@@H]2C)[nH]1 [Example 66, (2S,3S)—N-(3-cyano-4-fluorophenyl)-2-methyl-1-(5-methyl-1H-pyrrole-2-carbonyl)pyrrolidine-3-carboxamide]",45 to 60%
6,"O=C(Nc1cc(F)c(F)c(F)c1)[C@H]1CCN(C(=O)c2nc3cccnc3[nH]2)C1 [Example 67, (S)-1-(3H-imidazo[4,5-b]pyridine-2-carbonyl)-N-(3,4,5-trifluorophenyl)pyrrolidine-3-carboxamide]",45 to 60%
7,"Cc1cc(NC(=O)[C@H]2CCN(C(=O)c3nc4ccccc4[nH]3)C2)ccc1F [Example 68, (S)-1-(1H-benzo[d]imidazole-2-carbonyl)-N-(4-fluoro-3-methylphenyl)pyrrolidine-3-carboxamide]",< 45%
8,"O=C(Nc1ccc(F)c(Cl)c1)[C@H]1CCN(C(=O)c2nc3cccnc3[nH]2)C1 [Example 69, (S)—N-(3-chloro-4-fluorophenyl)-1-(3H-imidazo[4,5-b]pyridine-2-carbonyl)pyrrolidine-3-carboxamide]",70 to 80%
9,"O=C(NCc1cnc(Cl)s1)[C@H]1CCN(C(=O)c2[nH]c3ccccc3c2Cl)C1 [Example 71, (S)-1-(3-chloro-1H-indole-2-carbonyl)-N-((2-chlorothiazol-5-yl)methyl)pyrrolidine-3-carboxamide]",70 to 80%
10,"C[C@H]1[C@@H](C(=O)Nc2cc(F)c(F)c(F)c2)CCN1C(=O)c1[nH]c2ccccc2c1CO [Example 72, (2S,3S)-1-(3-(hydroxymethyl)-1H-indole-2-carbonyl)-2-methyl-N-(3,4,5-trifluorophenyl)pyrrolidine-3-carboxamide]",60 to 70%
11,"O=C(Nc1cc(F)c(F)c(F)c1)[C@H]1CCN(C(=O)c2ccc(C3CC3)[nH]2)C1 [Example 73, (S)-1-(5-cyclopropyl-1H-pyrrole-2-carbonyl)-N-(3,4,5-trifluorophenyl)pyrrolidine-3-carboxamide]",45 to 60%
12,"N#Cc1cc(NC(=O)[C@H]2CCN(C(=O)c3ccc(-c4cccnc4)[nH]3)C2)ccc1F [Example 75, (S)—N-(3-cyano-4-fluorophenyl)-1-(5-(pyridin-3-yl)-1H-pyrrole-2-carbonyl)pyrrolidine-3-carboxamide]",60 to 70%
13,"N#Cc1cc(NC(=O)[C@H]2CCN(C(=O)c3ccc(-c4ccc(F)cc4)[nH]3)C2)ccc1F [Example 76, (S)—N-(3-cyano-4-fluorophenyl)-1-(5-(4-fluorophenyl)-1H-pyrrole-2-carbonyl)pyrrolidine-3-carboxamide]",45 to 60%
14,"O=C(Nc1cc(F)c(F)c(F)c1)[C@H]1CCN(C(=O)c2ccc(-c3ccncc3)[nH]2)C1 [Example 77, (S)-1-(5-(pyridin-4-yl)-1H-pyrrole-2-carbonyl)-N-(3,4,5-trifluorophenyl)pyrrolidine-3-carboxamide]",< 45%
15,"N#Cc1cc(NC(=O)[C@H]2CCN(C(=O)c3ccc(-c4ccncc4)[nH]3)C2)ccc1F [Example 78, (S)—N-(3-cyano-4-fluorophenyl)-1-(5-(pyridin-4-yl)-1H-pyrrole-2-carbonyl)pyrrolidine-3-carboxamide]",70 to 80%
16,"O=C(Nc1cc(F)c(F)c(F)c1)[C@H]1CCN(C(=O)c2ccc(-c3cncnc3)[nH]2)C1 [Example 79, (S)-1-(5-(pyrimidin-5-yl)-1H-pyrrole-2-carbonyl)-N-(3,4,5-trifluorophenyl)pyrrolidine-3-carboxamide]",< 45%
